# Assay results taken from patent US12479840B2, “HMG-CoA reductase degradation inducing compound” (Uppthera, priority 2020, dated 2025).
# Biological target: T1, HMG-CoA reductase (Homo sapiens, UniProt P04035)
# T1 construct: endogenous in cells; host or cells: HepG2 (Korea Cell Line Bank)
# T1 sequence (P04035 1-888): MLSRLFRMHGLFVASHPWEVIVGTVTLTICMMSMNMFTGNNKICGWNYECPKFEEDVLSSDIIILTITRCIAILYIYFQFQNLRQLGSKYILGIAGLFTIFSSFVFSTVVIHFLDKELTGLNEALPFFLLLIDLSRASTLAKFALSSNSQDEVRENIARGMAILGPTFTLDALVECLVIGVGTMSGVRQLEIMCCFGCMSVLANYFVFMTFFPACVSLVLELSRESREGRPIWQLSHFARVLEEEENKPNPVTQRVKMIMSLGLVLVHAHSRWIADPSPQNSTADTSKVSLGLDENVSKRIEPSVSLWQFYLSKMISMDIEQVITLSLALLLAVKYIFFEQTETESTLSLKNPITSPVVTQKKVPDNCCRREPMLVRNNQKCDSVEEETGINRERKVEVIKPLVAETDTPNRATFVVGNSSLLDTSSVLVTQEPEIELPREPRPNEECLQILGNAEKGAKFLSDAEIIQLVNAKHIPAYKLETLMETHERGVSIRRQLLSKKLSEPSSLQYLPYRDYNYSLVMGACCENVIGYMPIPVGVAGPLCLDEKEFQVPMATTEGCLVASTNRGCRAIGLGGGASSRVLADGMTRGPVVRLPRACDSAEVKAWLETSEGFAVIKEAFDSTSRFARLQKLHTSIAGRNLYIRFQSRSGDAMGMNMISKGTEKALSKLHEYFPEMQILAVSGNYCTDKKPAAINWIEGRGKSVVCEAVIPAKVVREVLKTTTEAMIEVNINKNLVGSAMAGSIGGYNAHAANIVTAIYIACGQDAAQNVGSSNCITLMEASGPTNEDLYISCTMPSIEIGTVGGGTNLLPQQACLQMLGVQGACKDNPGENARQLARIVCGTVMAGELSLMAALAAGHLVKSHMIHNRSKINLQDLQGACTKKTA
# Assay: HMG-CoA reductase (HMGCR) degradation in HepG2 cells by western blotting
# Assay type: cell-based
# Settings: treated for 18 hours, ratio of HMG-CoA reductase to GAPDH, read-out: DC50
# Method: HepG2, a human liver cancer cell line, was purchased from the Korea Cell Line Bank (KCLB), Seoul, Korea. The passage in cell culture was maintained at P105 to P110.
# The compounds of the present invention were completely dissolved in DMSO and used in the experiment. 2×10^5 cells were seeded for each well of a 12-well plate (SPL), and the cells were cultured in the culture medium in a total volume of 2 ml. Each of the compounds of the present invention and comparative compounds was diluted three folds from the highest concentration of 3 μM to the lowest concentration in 10 points and treated for 18 hours.
# Each of the compounds the present invention and comparative compounds was diluted three folds from the highest concentration of 3 μM to the lowest concentration of […] in 10 points and was treated for 18 hours.
# For SDS-PAGE and Western blotting, 1×RIPA lysis buffer (Rockland, Cat. No. MB-030-0050; Lot no. 39751), 100× Protease Inhibitor Cocktail (Quartett, Cat. No. PPI1015; Lot no. PCO50038424), Pierce™ BCA protein assay kit (ThermoScientific, Cat. No. 23225; Lot no. UC276876), albumin standard (ThermoScientific, Cat. No. 23209; Lot no. UB269561), 4-15% Mini-PROTEAN TGX stain-free gel (Bio-rad, Cat. No. 4568085; Lot no. L007041B), 10× Tris/Glycine/SDS buffer (Bio-rad, Cat. No. 1610732; Lot no. 10000044375B); 10×TBS (Bio-rad, Cat. No. 1706435; Lot no. 1000045140B), 10% Tween 20 (Cat. No. 1610781; Lot no. L004152B), Color protein standard broad range (NEB, Cat. No. P7719S; Lot no. 10040349), 4× Laemmli sample buffer (Bio-rad, Cat. No. 1610747; Lot no. L004133B), β-mercaptoethanol (Sigma-Aldrich, Cat. No. M3148; Lot no. 60-24-2), SuperBlock™ T20 (TBS) blocking buffer (ThermoScientific, Cat. No. 37536; Lot no. UC282578), 1M sodium azide solution (Sigma-Aldrich, Cat. No. 08591-1 mL-F; Lot no. BCBV4989), α-Rabbit pAb to Ms IgG (abcam, Cat. No. ab97046; Lot no. GR3252115-1), α-Goat pAb to Rb IgG (CST, Cat. No. 7074S; Lot no. 28), α-GAPDH (abcam, Cat. No. ab8245), α-HMGCR (GeneTex, Cat. No. GTX54088; Lot no. 821903509), ECL™ Prime western blotting reagents (GE Healthcare, Cat. No. RPN2232; Lot no. 17001655), Ponceau S solution (Sigma-Aldrich, Cat. No. P7170; Lot no. SLBV4112), Difco™ Skim milk (BD, Cat. No. 232100; Lot no. 8346795), and iBlot® 2 NC Regular stacks (Invitrogen, Cat. No. IB23001; Lot no. 2NR110619-02), were used.
# For cell harvesting, the cells were first separated from the plate using trypsin and then washed with the medium and PBS. Specifically, the medium was suctioned off and washed with 1 mL of PBS, and PBS was suctioned off. The cells were treated with 0.5 mL TrypLE™ Express at 37° C. for 7 minutes to separate the cells, and then 0.5 mL of complete medium was added to collect 1 mL of cell culture solution. Then, 1 mL of the cell collection solution was centrifuged at 8,000 rpm for 120 seconds, and the supernatant was removed. After washing with 0.2 mL of PBS, the PBS was removed.
# For cell lysis, a lysis buffer was added and cell debris was removed to obtain a cell lysate. Specifically, the cells were treated with 70 μL of 1×RIPA buffer containing a protease inhibitor and incubated for 30 minutes on ice. Then, the cells were centrifuged at 4° C. and 15,000 rpm for 10 minutes to obtain a cell lysate.
# Then, a standard curve was obtained using the BCA assay, and the protein mass in the lysate was quantified by substituting the curve. The mixture was incubated at 37° C. for 30 minutes using 20 μL of standard or sample solution, and 200 μL of BCA or Bradford solution, and measured at 562 nm absorbance. Samples were prepared by adding 4× sample buffer so that the quantity of protein added to each well was 15 μg.
# Sodium dodecyl sulfate polyacrylamide gel electrophoresis (SDS-PAGE) was performed by setting a running time of 100 minutes at 120 V on a 4-15% Mini-PROTEAN TGX stain-free gel (15 well). Transferring was performed on iBlot® 2 NC Mini stacks at P0 mode of the dry blotting system. […]
row,Compound,DC50
1,"C[C@H]1C=C2C=C[C@H](C)[C@H](CC[C@@H]3C[C@@H](O)CC(=O)O3)[C@H]2[C@@H](OC(=O)NCCCCCCCCNC(=O)COc2cccc3c2C(=O)N(C2CCC(=O)NC2=O)C3=O)C1 (stereo partly drawn) [Compound 97, (1S,3R,7S,8S,8aR)-8-(2-((2R,4R)-4-hydroxy-6-oxotetrahydro-2H-pyran-2-yl)ethyl)-3,7-dimethyl-1,2,3,7,8,8a-hexahydronaphthalen-1-yl (8-(2-((2-(2,6-dioxopiperidin-3-yl)-1,3-dioxoisoindolin-4-yl)oxy)acetamido)octyl)carbamate]",0.05 to 0.5 µM
2,"C[C@H]1C=C2C=C[C@H](C)[C@H](CC[C@@H]3C[C@@H](O[Si](C)(C)C(C)(C)C)CC(=O)O3)[C@H]2[C@@H](OC(=O)NCCOCCOCCOCC(=O)Nc2cccc3c2C(=O)N(C2CCC(=O)NC2=O)C3=O)C1 (stereo partly drawn) [Compound 98, (1S,3R,7S,8S,8aR)-8-(2-((2R,4R)-4-((tert-butyldimethylsilyl)oxy)-6-oxotetrahydro-2H-pyran-2-yl)ethyl)-3,7-dimethyl-1,2,3,7,8,8a-hexahydronaphthalen-1-yl (2-(2-(2-(2-((2-(2,6-dioxopiperidin-3-yl)-1,3-dioxoisoindolin-4-yl)amino)-2-oxoethoxy)ethoxy)ethoxy)ethyl)carbamate]",< 0.05 µM
3,"C[C@H]1C=C2C=C[C@H](C)[C@H](CC[C@@H]3C[C@@H](O)CC(=O)O3)[C@H]2[C@@H](OC(=O)NCCCOCCCOCCCNc2cccc3c2C(=O)N(C2CCC(=O)NC2=O)C3=O)C1 (stereo partly drawn) [Compound 95, (1S,3R,7S,8S,8aR)-8-(2-((2R,4R)-4-hydroxy-6-oxotetrahydro-2H-pyran-2-yl)ethyl)-3,7-dimethyl-1,2,3,7,8,8a-hexahydronaphthalen-1-yl (3-(3-(3-((2-(2,6-dioxopiperidin-3-yl)-1,3-dioxoisoindolin-4-yl)amino)propoxy)propoxy)propyl)carbamate]",0.05 to 0.5 µM

# Further lines, results first:
row,DC50,Compound
1,< 0.05 µM,"C[C@H]1C=C2C=C[C@H](C)[C@H](CC[C@@H]3C[C@@H](O)CC(=O)O3)[C@H]2[C@@H](OC(=O)NCCOCC(=O)NCC(=O)Nc2cccc3c2C(=O)N(C2CCC(=O)NC2=O)C3=O)C1 (stereo partly drawn) [Compound 145, (1S,3R,7S,8S,8aR)-8-(2-((2R,4R)-4-hydroxy-6-oxotetrahydro-2H-pyran-2-yl)ethyl)-3,7-dimethyl-1,2,3,7,8,8a-hexahydronaphthalen-1-yl (2-(2-((2-((2-(2,6-dioxopiperidin-3-yl)-1,3-dioxoisoindolin-4-yl)amino)-2-oxoethyl)amino)-2-oxoethoxy)ethyl)carbamate]"
2,< 0.05 µM,"Cc1ncsc1-c1ccc(CNC(=O)[C@@H]2C[C@@H](O)CN2C(=O)[C@@H](NC(=O)C2(F)CC2)C(C)(C)C)c(OCCCCCCCCNC(=O)O[C@H]2C[C@@H](C)C=C3C=C[C@H](C)[C@H](CC[C@@H]4C[C@@H](O)CC(=O)O4)[C@H]32)c1 [Compound 165, (1S,3R,7S,8S,8aR)-8-(2-((2R,4R)-4-hydroxy-6-oxotetrahydro-2H-pyran-2-yl)ethyl)-3,7-dimethyl-1,2,3,7,8,8a-hexahydronaphthalen-1-yl (8-(2-(((2S,4R)-1-((S)-2-(1-fluorocyclopropane-1-carboxamido)-3,3-dimethylbutanoyl)-4-hydroxypyrrolidine-2-carboxamido)methyl)-5-(4-methylthiazol-5-yl)phenoxy)octyl)carbamate]"
3,< 0.05 µM,"C[C@H]1C=C2C=C[C@H](C)[C@H](CC[C@@H]3C[C@@H](O)CC(=O)O3)[C@H]2[C@@H](OC(=O)NCCCn2cnc(CNc3cccc4c3C(=O)N(C3CCC(=O)NC3=O)C4=O)c2)C1 (stereo partly drawn) [Compound 103, (1S,3R,7S,8S,8aR)-8-(2-((2R,4R)-4-hydroxy-6-oxotetrahydro-2H-pyran-2-yl)ethyl)-3,7-dimethyl-1,2,3,7,8,8a-hexahydronaphthalen-1-yl (3-(4-(((2-(2,6-dioxopiperidin-3-yl)-1,3-dioxoisoindolin-4-yl)amino)methyl)-1H-imidazol-1-yl)propyl)carbamate]"
4,< 0.05 µM,"Cc1ncsc1-c1ccc(CNC(=O)[C@@H]2C[C@@H](O)CN2C(=O)[C@@H](NC(=O)COCCOCCNC(=O)O[C@H]2C[C@@H](C)C=C3C=C[C@H](C)[C@H](CC[C@@H]4C[C@@H](O)CC(=O)O4)[C@H]32)C(C)(C)C)cc1 [Compound 15, (1S,3R,7S,8S,8aR)-8-(2-((2R,4R)-4-hydroxy-6-oxotetrahydro-2H-pyran-2-yl)ethyl)-3,7-dimethyl-1,2,3,7,8,8a-hexahydronaphthalen-1-yl (2-(2-(2-(((S)-1-((2S,4R)-4-hydroxy-2-((4-(4-methylthiazol-5-yl)benzyl)carbamoyl)pyrrolidin-1-yl)-3,3-dimethyl-1-oxobutan-2-yl)amino)-2-oxoethoxy)ethoxy)ethyl)carbamate]"
5,< 0.05 µM,"C[C@H]1C=C2C=C[C@H](C)[C@H](CC[C@@H]3C[C@@H](O)CC(=O)O3)[C@H]2[C@@H](OC(=O)NCCCCCNC(=O)COc2cccc3c2C(=O)N(C2CCC(=O)NC2=O)C3=O)C1 (stereo partly drawn) [Compound 75, (1S,3R,7S,8S,8aR)-8-(2-((2R,4R)-4-hydroxy-6-oxotetrahydro-2H-pyran-2-yl)ethyl)-3,7-dimethyl-1,2,3,7,8,8a-hexahydronaphthalen-1-yl (5-(2-((2-(2,6-dioxopiperidin-3-yl)-1,3-dioxoisoindolin-4-yl)oxy)acetamido)pentyl)carbamate]"
